≈ marks a conversion by molar mass, not a printed value. Read-outs that look alike come from different tables or passages of the source.
Legend:
Experiment in all cases: Bacterial susceptibility testing (MIC, broth microdilution)
Type in all cases: cell-based
[1] = system: E. coli ATCC25922; details: for MIC: Escherichia coli
Protocol: (§1) Minimal inhibitory concentrations (MIC) were determined by the broth microdilution method in accordance with the Clinical and Laboratory Standards Institute (CLSI) guidelines. In brief, organism suspensions were adjusted to a final inoculum between 3×10^5 and 7×10^5 colony-forming units (CFU)/mL. Drug dilutions and inocula were made in sterile, cation adjusted Mueller-Hinton Broth (Beckton Dickinson). In wells, an inoculum volume of 100 μL was mixed to 2 μL of DMSO with 2-fold serial dilutions of drug. All inoculated microdilution trays were incubated in ambient air at 35° C. for 18-24 h. Following incubation, the lowest concentration of the drug that prevented visible growth (OD600 nm<0.05) was recorded as the MIC. Performance of the assay was monitored by the use of laboratory quality -control strains and compounds with defined MIC spectrum, in accordance with CLSI guidelines.

[2] = system: K. pneumoniae ATCC13883; details: for MIC: Klebsiella pneumoniae
Protocol: as §1

[3] = system: P. aeruginosa ATCC27853; details: for MIC: Pseudomonas aeruginosa
Protocol: as §1

[4] = system: P. aeruginosa PAO1; details: Pseudomonas aeruginosa
Protocol: as §1

[5] = ATCC25922, broth microdilution, cation adjusted Mueller-Hinton Broth, 35° C., 18-24 h, read-out: E. coli ATCC25922 MIC
[6] = ATCC13883, broth microdilution, cation adjusted Mueller-Hinton Broth, 35° C., 18-24 h, read-out: K. pneumoniae ATCC13883 MIC
[7] = ATCC27853, broth microdilution, cation adjusted Mueller-Hinton Broth, 35° C., 18-24 h, read-out: P. aeruginosa ATCC27853 MIC
[8] = PAO1, broth microdilution, cation adjusted Mueller-Hinton Broth, 35° C., 18-24 h, read-out: P. aeruginosa PAO1 MIC
[9] = broth microdilution, cation adjusted Mueller-Hinton Broth, 35° C., 18-24 h

| Structure (SMILES) | MIC [1, 5] [mg/L] | MIC [2, 6] [mg/L] | MIC [3, 7] [mg/L] | MIC [4, 8] [mg/L] | E. coli ATCC25922 MIC [1, 9] [mg/L] | K. pneumoniae ATCC13883 MIC [2, 9] [mg/L] | P. aeruginosa ATCC27853 MIC [3, 9] [mg/L] | MIC ([1]; ATCC25922, read-out: E. coli ATCC25922 MIC) [mg/L] | MIC ([2]; ATCC13883, read-out: K. pneumoniae ATCC13883 MIC) [mg/L] | MIC ([3]; ATCC27853, read-out: P. aeruginosa ATCC27853 MIC) [mg/L] | MIC ([4]; PAO1, read-out: P. aeruginosa PAO1 MIC) [mg/L] |
| --- | --- | --- | --- | --- | --- | --- | --- | --- | --- | --- | --- |
| C[C@H](O)c1nccn1[C@@H](C#Cc1ccc(-c2ccc(O[C@@H]3COC[C@H]3O)cc2)c(F)c1)CO (racemic) [Compound 5, (rac-trans)-4-((2′-fluoro-4′-((S)-4-hydroxy-3-(2-((S)-1-hydroxyethyl)-1H-imidazol-1-yl)but-1-yn-1-yl)-[1,1′-biphenyl]-4-yl)oxy)tetrahydrofuran-3-ol] | 2 (≈ 4.42 µM) | 4 (≈ 8.84 µM) | 4 (≈ 8.84 µM) | 4 (≈ 8.84 µM) | – | – | – | – | – | – | – |
| C[C@H](O)c1nccn1[C@@H](C#Cc1ccc(-c2ccc(OC3COC[C@H]3O)c(F)c2)cc1)CO (mixture of isomers) [Compound 6, (rac-trans)-4-((3-fluoro-4′-((S)-4-hydroxy-3-(2-((S)-1-hydroxyethyl)-1H-imidazol-1-yl)but-1-yn-1-yl)-[1,1′-biphenyl]-4-yl)oxy)tetrahydrofuran-3-ol] | 2 (≈ 4.42 µM) | 4 (≈ 8.84 µM) | 4 (≈ 8.84 µM) | 2 (≈ 4.42 µM) | – | – | – | – | – | – | – |
| C[C@H](O)c1nccn1[C@@H](C#Cc1ccc(-c2ccc(CO[C@@H]3COC[C@H]3O)c(F)c2)cc1)CO (racemic) [Compound 44, (rac-trans)-4-((3-fluoro-4′-((S)-4-hydroxy-3-(2-((S)-1-hydroxyethyl)-1H-imidazol-1-yl)but-1-yn-1-yl)-[1,1′-biphenyl]-4-yl)methoxy)tetrahydrofuran-3-ol] | 4 (≈ 8.57 µM) | 8 (≈ 17.1 µM) | 8 (≈ 17.1 µM) | 8 (≈ 17.1 µM) | – | – | – | – | – | – | – |
| C[C@H](O)c1nccn1[C@@H](C#Cc1ccc(-c2ccc(CN[C@@H]3COC[C@H]3O)cc2)cc1)CO (racemic) [Compound 65] | 2 (≈ 4.47 µM) | 4 (≈ 8.94 µM) | 4 (≈ 8.94 µM) | 2 (≈ 4.47 µM) | – | – | – | – | – | – | – |
| CC(N1CC(Oc2ccc(-c3ccc(C#C[C@@H](CO)n4ccnc4[C@H](C)O)cc3)cc2)C1)C(F)(F)F (mixture of isomers) [Compound 97, (2S)-2-(2-((S)-1-hydroxyethyl)-1H-imidazol-1-yl)-4-(4′-((1-(1,1,1-trifluoropropan-2-yl)azetidin-3-yl)oxy)-[1,1′-biphenyl]-4-yl)but-3-yn-1-ol] | – | – | – | – | – | – | – | 4 (≈ 8.01 µM) | 8 (≈ 16 µM) | 32 (≈ 64.1 µM) | 16 (≈ 32 µM) |
| CC1C(Oc2ccc(-c3ccc(C#C[C@@H](CO)n4ccnc4[C@H](C)O)cc3)cc2)CN1CC#N (mixture of isomers) [Compound 99] | 1 (≈ 2.19 µM) | 2 (≈ 4.38 µM) | 8 (≈ 17.5 µM) | 4 (≈ 8.76 µM) | – | – | – | – | – | – | – |
| CNC(=O)C(C)Oc1ccc(-c2ccc(C#C[C@@H](CO)n3ccnc3[C@H](C)O)cc2)cc1 (mixture of isomers) [Compound 102, 2-((4′-((S)-4-hydroxy-3-(2-((S)-1-hydroxyethyl)-1H-imidazol-1-yl)but-1-yn-1-yl)-[1,1′-biphenyl]-4-yl)oxy)-N-methylpropanamide] | 2 (≈ 4.61 µM) | 4 (≈ 9.23 µM) | 8 (≈ 18.5 µM) | 4 (≈ 9.23 µM) | – | – | – | – | – | – | – |
| CO[C@H]1C[C@H](c2ccc(-c3ccc(C#C[C@@H](CO)n4ccnc4[C@H](C)O)cc3)cc2)C1 (racemic) [Compound 117, (S)-2-(2-((S)-1-hydroxyethyl)-1H-imidazol-1-yl)-4-(4′-((rac-trans)-3-methoxycyclobutyl)-[1,1′-biphenyl]-4-yl)but-3-yn-1-ol] | 0.12 (≈ 0.288 µM) | 0.25 (≈ 0.6 µM) | 4 (≈ 9.6 µM) | 2 (≈ 4.8 µM) | – | – | – | – | – | – | – |
| CO[C@H]1C[C@@H](c2ccc(-c3ccc(C#C[C@@H](CO)n4ccnc4[C@H](C)O)cc3)cc2)C1 (racemic) [Compound 118, (S)-2-(2-((S)-1-hydroxyethyl)-1H-imidazol-1-yl)-4-(4′-((rac-cis)-3-methoxycyclobutyl)-[1,1′-biphenyl]-4-yl)but-3-yn-1-ol] | 0.12 (≈ 0.288 µM) | 0.38 (≈ 0.912 µM) | 4 (≈ 9.6 µM) | 2 (≈ 4.8 µM) | – | – | – | – | – | – | – |
| C[C@H](O)c1nccn1[C@@H](C#Cc1ccc(-c2ccc(O[C@H]3C[C@H](NS(C)(=O)=O)C3)cc2)cc1)CO (racemic) [Compound 120, N-((rac-trans)-3-((4′-((S)-4-hydroxy-3-(2-((S)-1-hydroxyethyl)-1H-imidazol-1-yl)but-1-yn-1-yl)-[1,1′-biphenyl]-4-yl)oxy)cyclobutyl)methane-sulfonamide] | 1 (≈ 2.02 µM) | 2 (≈ 4.04 µM) | 4 (≈ 8.07 µM) | 2 (≈ 4.04 µM) | – | – | – | – | – | – | – |
| C[C@H](O)c1nccn1[C@@H](C#Cc1ccc(-c2ccc(CO[C@H]3COC[C@@H]3O)c(F)c2)cc1)CO (single isomer, unassigned) [Compound 46] | – | – | – | – | 1 | 2 | 4 | – | – | – | – |

The next lines start with results.

| MIC [1, 5] [mg/L] | MIC [2, 6] [mg/L] | MIC [3, 7] [mg/L] | MIC [4, 8] [mg/L] | E. coli ATCC25922 MIC [1, 9] [mg/L] | K. pneumoniae ATCC13883 MIC [2, 9] [mg/L] | P. aeruginosa ATCC27853 MIC [3, 9] [mg/L] | Structure (SMILES) | MIC ([1]; ATCC25922, read-out: E. coli ATCC25922 MIC) [mg/L] | MIC ([2]; ATCC13883, read-out: K. pneumoniae ATCC13883 MIC) [mg/L] | MIC ([3]; ATCC27853, read-out: P. aeruginosa ATCC27853 MIC) [mg/L] | MIC ([4]; PAO1, read-out: P. aeruginosa PAO1 MIC) [mg/L] |
| --- | --- | --- | --- | --- | --- | --- | --- | --- | --- | --- | --- |
| 0.5 (≈ 1.11 µM) | 2 (≈ 4.42 µM) | 4 (≈ 8.84 µM) | 2 (≈ 4.42 µM) | – | – | – | C[C@H](O)c1nccn1[C@@H](C#Cc1ccc(-c2ccc(O[C@@H]3COC[C@H]3O)cc2F)cc1)CO (racemic) [Compound 1, (rac-trans)-4-((2-fluoro-4′-((S)-4-hydroxy-3-(2-((S)-1-hydroxyethyl)-1H-imidazol-1-yl)but-1-yn-1-yl)-[1,1′-biphenyl]-4-yl)oxy)tetrahydrofuran-3-ol] | – | – | – | – |
| 2 (≈ 4.42 µM) | 4 (≈ 8.84 µM) | 8 (≈ 17.7 µM) | 8 (≈ 17.7 µM) | – | – | – | C[C@H](O)c1nccn1[C@@H](C#Cc1ccc(-c2ccc(O[C@@H]3COC[C@H]3O)cc2)cc1F)CO (racemic) [Compound 4, (rac-trans)-4-((3′-fluoro-4′-((S)-4-hydroxy-3-(2-((S)-1-hydroxyethyl)-1H-imidazol-1-yl)but-1-yn-1-yl)-[1,1′-biphenyl]-4-yl)oxy)tetrahydrofuran-3-ol] | – | – | – | – |
| 2 (≈ 4.29 µM) | 4 (≈ 8.57 µM) | 8 (≈ 17.1 µM) | 2 (≈ 4.29 µM) | – | – | – | C[C@H](O)c1nccn1[C@@H](C#Cc1ccc(-c2ccc(O[C@@H]3CCOC[C@H]3O)c(F)c2)cc1)CO (racemic) [Compound 51, (rac-trans)-4-((3-fluoro-4′-((S)-4-hydroxy-3-(2-((S)-1-hydroxyethyl)-1H-imidazol-1-yl)but-1-yn-1-yl)-[1,1′-biphenyl]-4-yl)oxy)tetrahydro-2H-pyran-3-ol] | – | – | – | – |
| 1 (≈ 2.14 µM) | 2 (≈ 4.29 µM) | 8 (≈ 17.1 µM) | 4 (≈ 8.57 µM) | – | – | – | C[C@H](O)c1nccn1[C@@H](C#Cc1ccc(-c2ccc(O[C@@H]3CCOC[C@H]3O)cc2F)cc1)CO (racemic) [Compound 54, (rac-trans)-4-((2-fluoro-4′-((S)-4-hydroxy-3-(2-((S)-1-hydroxyethyl)-1H-imidazol-1-yl)but-1-yn-1-yl)-[1,1′-biphenyl]-4-yl)oxy)tetrahydro-2H-pyran-3-ol] | – | – | – | – |
| 1 (≈ 2.23 µM) | 2 (≈ 4.47 µM) | 2 (≈ 4.47 µM) | 1 (≈ 2.23 µM) | – | – | – | C[C@H](O)c1nccn1[C@@H](C#Cc1ccc(-c2ccc(NC[C@@H]3COC[C@H]3O)cc2)cc1)CO (racemic) [Compound 69, (rac-trans)-4-(((4′-((S)-4-hydroxy-3-(2-((S)-1-hydroxyethyl)-1H-imidazol-1-yl)but-1-yn-1-yl)-[1,1′-biphenyl]-4-yl)amino)methyl)tetrahydrofuran-3-ol] | – | – | – | – |
| 0.5 (≈ 1.17 µM) | 1 (≈ 2.34 µM) | 4 (≈ 9.38 µM) | 1 (≈ 2.34 µM) | – | – | – | C[C@H](O)c1nccn1[C@@H](C#Cc1ccc(-c2ccc([C@H]3C[C@](N)(C#N)C3)cc2)cc1)CO (racemic) [Compound 101, (rac-cis)-1-amino-3-(4′-((S)-4-hydroxy-3-(2-((S)-1-hydroxyethyl)-1H-imidazol-1-yl)but-1-yn-1-yl)-[1,1′-biphenyl]-4-yl)cyclobutane-1-carbonitrile] | – | – | – | – |
| 2 (≈ 4.38 µM) | 4 (≈ 8.76 µM) | 2 (≈ 4.38 µM) | 2 (≈ 4.38 µM) | – | – | – | C[C@H](O)c1nccn1[C@@H](C#Cc1ccc(-c2ccc(OC3CCN(CC#N)C3)cc2)cc1)CO (mixture of isomers) [Compound 104, 2-(3-((4′-((S)-4-hydroxy-3-(2-((S)-1-hydroxyethyl)-1H-imidazol-1-yl)but-1-yn-1-yl)-[1,1′-biphenyl]-4-yl)oxy)pyrrolidin-1-yl)acetonitrile] | – | – | – | – |
| 0.25 (≈ 0.644 µM) | 0.5 (≈ 1.29 µM) | 4 (≈ 10.3 µM) | 2 (≈ 5.15 µM) | – | – | – | C[C@H](O)c1nccn1[C@@H](C#Cc1ccc(-c2ccc(C3CCO3)cc2)cc1)CO (mixture of isomers) [Compound 106, (2S)-2-(2-((S)-1-hydroxyethyl)-1H-imidazol-1-yl)-4-(4′-(oxetan-2-yl)-[1,1′-biphenyl]-4-yl)but-3-yn-1-ol] | – | – | – | – |
| 4 (≈ 7.96 µM) | 8 (≈ 15.9 µM) | > 32 | 8 (≈ 15.9 µM) | – | – | – | C[C@H](O)c1nccn1[C@@H](C#Cc1ccc(-c2ccc(O[C@H]3COC[C@]3(O)C(F)(F)F)cc2)cc1)CO (racemic) [Compound 119, (rac-cis)-4-((4′-((S)-4-hydroxy-3-(2-((S)-1-hydroxyethyl)-1H-imidazol-1-yl)but-1-yn-1-yl)-[1,1′-biphenyl]-4-yl)oxy)-3-(trifluoromethyl)tetrahydrofuran-3-ol] | – | – | – | – |
